Data as given in patent US10047050B2, “3,4-di-substituted pyridine compound, methods of using and compositions comprising the same” (ARDEA BIOSCIENCES, INC., priority 2011, dated 2018).
pEC50: −log10 of the molar value.

Target: T1, URAT-1 model (Homo sapiens, UniProt Q96S37)
T1 sequence (Q96S37 1-553): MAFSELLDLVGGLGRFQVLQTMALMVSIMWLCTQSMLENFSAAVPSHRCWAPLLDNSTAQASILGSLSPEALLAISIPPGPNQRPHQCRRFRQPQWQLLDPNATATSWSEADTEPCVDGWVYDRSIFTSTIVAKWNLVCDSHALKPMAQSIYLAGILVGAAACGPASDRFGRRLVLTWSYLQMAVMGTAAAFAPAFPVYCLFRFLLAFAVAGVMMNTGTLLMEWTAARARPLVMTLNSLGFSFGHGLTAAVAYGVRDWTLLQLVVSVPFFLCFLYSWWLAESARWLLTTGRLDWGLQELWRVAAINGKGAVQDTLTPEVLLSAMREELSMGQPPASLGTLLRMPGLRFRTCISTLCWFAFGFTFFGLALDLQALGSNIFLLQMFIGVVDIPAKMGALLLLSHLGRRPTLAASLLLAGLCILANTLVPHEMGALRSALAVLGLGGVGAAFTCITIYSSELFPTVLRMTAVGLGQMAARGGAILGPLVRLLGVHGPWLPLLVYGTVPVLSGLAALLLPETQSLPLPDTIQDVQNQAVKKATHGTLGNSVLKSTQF
Assay: URAT1-model assay, 14C-uric acid transport in HEK293/URAT1-model cells
Type: cell-based
Conditions: 125 μM 14C-uric acid, 10 minutes
Experimental: Transfections of HEK293 cells with a model URAT1 construct was performed using L2000 transfection reagent (Invitrogen) as described by the manufacturer. After 24 h the transfected cells were split into 10 cm tissue culture plates and grown for 1 day after which the medium was replaced with fresh growth medium containing G418 (Gibco) at 0.5 mg/ml final concentration. Drug-resistant colonies were selected after approximately 8 days and then tested for ^14C-uric acid transport activity. The HEK293/URAT1-model cells are plated on Poly-D-Lysine Coated 96-well Plates at a density of 125,000 cells per well.
Cells were grown overnight (20-26 hours) at 37° C. in an incubator. Plates were allowed to come to room temperature and media was washed out with one wash of 250 μl of Wash Buffer (125 mM Na Gluconate, 10 mM Hepes ph 7.3). […] Assay Buffer is 125 mM Sodium Gluconate, 4.8 mM Potassium Gluconate, 1.2 mM Potassium phosphate, monobasic, 1.2 mM magnesium sulfate, 1.3 mM Ca Gluconate, 5.6 mM Glucose, 25 mM HEPES, pH 7.3. Plates were incubated at room temperature for 10 minutes then washed 3 times with 50 μl Wash Buffer and 3 times with 250 μl Wash Buffer. Microscint 20 Scintillation Fluid was added and plates were incubated overnight at room temperature to equilibrate. Plates are then read on the TopCount Plate Reader and an EC50 value generated. […]

## CC(C)(Sc1ccncc1-c1ccc(C#N)c2ccccc12)C(=O)O [2-((3-(4-cyanonaphthalen-1-yl)pyridin-4-yl)thio)-2-methylpropanoic acid]
  pEC50: ≥ 7.30
